Assays:
[1] = Antiproliferative activity against human MCF7 cells after 48 hrs by MTT assay; type: functional, cell-based; details: MCF7, 48 h
[2] = Antiproliferative activity against human MDA-MB-231 cells after 48 hrs by MTT assay; type: functional, cell-based; details: MDA-MB-231, 48 h
[3] = Antiproliferative activity against human mammary epithelial cells after 48 hrs by MTT assay; type: cell-based, Epithelial cell
Homo sapiens [4] = organism: Homo sapiens; experiment: Inhibition of Akt in human MDA-MB-231 cells assessed as ratio of phosphorylated Akt to GAPDH expression level at 100 nM after 48 hrs by immunoblot analysis (reference value: 0.33 to 0.81); type: cell-based
Homo sapiens [5] = organism: Homo sapiens; experiment: Inhibition of Akt in human MDA-MB-231 cells assessed as ratio of phosphorylated GSK-3beta to GAPDH expression level at 100 nM after 48 hrs by immunoblot analysis (reference value: 0.14 to 1.50); type: cell-based
[6] = Homo sapiens, Epithelial cell, 48 h, read-out: IC50

Row | Structure (SMILES) | IC50 [1] | IC50 [2] | IC50 [3, 6] | IC50 ([3]; epithelial cell) | Ratio (Homo sapiens [4]) | Ratio (Homo sapiens [5])
1 | COC(=O)/C(=C/c1ccccc1)CN1C(=O)[C@@H](OC)[C@H]1c1ccc(Cl)cc1 | 15.2 µM | 15.6 µM | 37.9 µM |  |  | 
2 | CO[C@@H]1C(=O)N(C/C(C#N)=C/c2ccccc2)[C@@H]1c1ccc(Br)cc1 |  |  |  | Non-Toxic |  | 
3 | CCOC(=O)/C(=C/c1ccccc1)CN1C(=O)[C@@H](OC)[C@H]1c1ccc(F)cc1 | 18.8 µM | 14 µM |  | Non-Toxic |  | 
4 | COC[C@H]1OC(=O)c2coc3c2[C@@]1(C)C1=C(C3=O)[C@@H]2CCC(=O)[C@@]2(C)C[C@H]1OC(C)=O |  |  |  |  | 0.01 | 0.61
5 | COC(=O)/C(=C/c1ccccc1)CN1C(=O)[C@@H](OC)[C@H]1c1cccc([N+](=O)[O-])c1 | 15 µM | 14.4 µM |  | Non-Toxic |  | 
6 | COC(=O)/C(=C/c1ccccc1)CN1C(=O)[C@@H](OC)[C@H]1c1ccc(Cl)cc1Cl |  | 19 µM | 70 µM |  |  | 
7 | CO[C@@H]1C(=O)N(C/C(C#N)=C/c2ccccc2)[C@@H]1c1ccccc1Br | 10.8 µM | 10.7 µM |  | Non-Toxic |  | 
8 | COc1ccc(OC)c([C@@H]2[C@H](OC)C(=O)N2C/C(C#N)=C/c2ccccc2)c1 |  | 23.4 µM | > 100 µM |  |  | 
9 | COC(=O)/C(=C/c1ccccc1)CN1C(=O)[C@@H](OC)[C@H]1c1ccccc1C(F)(F)F |  | 17.6 µM |  | Non-Toxic |  | 
10 | COC(=O)/C(=C/c1ccccc1)CN1C(=O)[C@@H](OC)[C@H]1c1cccc(Cl)c1 | 25.1 µM |  |  | Non-Toxic |  | 
11 | COC(=O)/C(=C/c1ccccc1)CN1C(=O)[C@@H](OC)[C@H]1c1ccc(OC)cc1 | 11.6 µM | 14 µM |  | Non-Toxic |  | 
12 | CO[C@@H]1C(=O)N(C/C(C#N)=C/c2ccccc2)[C@@H]1c1ccc(Cl)cc1 | 19.8 µM | 18 µM |  | Non-Toxic |  | 
